Consider 60 compounds from US9216964B2, “Hedgehog pathway modulators” (Novartis AG, priority 2008, dated 2015).

Read-outs that look alike come from different tables or passages of the source.

In this assay the test system is hedgehog signaling pathway. The experiment in a line: Gli-Luc Reporter Assay for Hh Pathway Inhibition (TMHh-12 cells, pTA-8×Gli-Luc reporter). In kind it is cell-based, Mouse. Here is the method:
Compounds of the present invention are assayed to evaluate their capacity to inhibit the hedgehog signaling pathway.
Gli-Luc Reporter Assay for Hh Pathway Inhibition
Mouse TM3 cells (obtained from American Type Culture Collection, ATCC, Manassas, Va.) are cultured in DMEM/F12 medium (Gibco/Invitrogen, Carlsbad, Calif.) supplemented with 5% heat inactivated horse serum and 2.5% FBS (Gibco/Invitrogen, Carlsbad, Calif.), 50 unit/mL penicillin and 50 μg/mL of streptomycin (Gibco/Invitrogen, Carlsbad, Calif.) at […] with 5% CO2 in air atmosphere. TM3 cells were transfected with pTA-8×Gli-Luc reporter plasmid. A stably transfected clone termed TMHh-12 was selected. […] To evaluate the IC50s of the antagonists, 8000 TMHh-12 cells were plated into each wells in 384-well plates with 50% DMEM/F12 medium supplemented with 2% FBS. After 12 hours, Hh pathway is activated by adding recombinant mouse Shh protein (expressed in E. coli, 8 μg/mL) or by adding Smo agonists. The testing compounds are added into plates with different concentrations. After 48 hours, the firefly luciferase luciferase activities are assayed with the Bright-Glo™ Luciferase Assay System (Promega, Madison, Wis.). The IC50 is measured when the effect of the compound reduces the luminescence signal by 50%. Toxicity of these compounds are evaluated in TM3 cells using CellTiter Glo assays or by TM3-Luc cell line (a TM3 cell stably transfected with a constitutive luciferase expression vector).

Setting [1] is: Mus musculus, TMHh12, enzymatic and cellular assays for the inhibition of hedgehog signaling pathways, read-out: IC50 Ranges.
[2] abbreviates: enzymatic and cellular assays for the inhibition of hedgehog signaling pathways, read-out: IC50 Ranges.
Setting [3] is: Mus musculus, TMHh12, Ag1.5 1 nM, read-out: Hedgehog Inhibition IC50 (nM) (Ag1.5 1 nM).

As to `COc1ccc(-c2cc(Nc3cccc4c3CCN([C@@H]3CCS(=O)(=O)C3)C4)ccc2C)nn1` [Compound 321], the IC50 under setting [1] is 1 to 10 nM.

Consider `Cc1ccc(Nc2cccc3c2CCN(S(C)(=O)=O)C3)cc1-c1ccc(C(F)(F)F)cn1` [Compound 167], for which the IC50 under setting [2] lay within 1 to 10 nM. On to `Cc1ccc(Nc2cccc3c2CCN(CC(C)(C)O)C3)cc1C(=O)Nc1ccccc1` [Compound 222], for which the IC50 under setting [1] was 1 to 10 nM. On the same count and under the same terms, the result for `Cc1ccc(Nc2cccc3c2CCN(S(C)(=O)=O)C3)cc1-c1ccc(CN(C)C)cc1` [Compound 108] reads 100 to 1000 nM. In the case of `O=C(O)CC(=O)N1CCc2c(cccc2Nc2ccc(Cl)c(-c3nc(-c4ccccc4)c[nH]3)c2)C1` [Compound 44], under setting [1], the IC50 lay in the range of 1 to 10 nM. Consider `CC(O)C(=O)N1CCc2c(cccc2Nc2ccc(Cl)c(-c3ncc(-c4ccccc4)[nH]3)c2)C1` (stereo not shown) [Compound 10], for which, under setting [1], the concentration for half-maximal inhibition (IC50) lay in the range of 0.001 to 1 nM. On to `Cc1ccc(Nc2cccc3c2CCN(CCS(C)(=O)=O)C3)cc1C(=O)Nc1ccccc1` [Compound 246], for which the IC50 under setting [1] was in the range of 10 to 100 nM. On the same count and under the same terms, the value for `COc1cnc(-c2cc(Nc3cccc4c3CCN(S(C)(=O)=O)C4)ccc2C)nc1` [Compound 176] was 10 to 100 nM. Turning to `Cc1ccc(Nc2cccc3c2CCN(S(C)(=O)=O)C3)cc1-c1ccc(C#N)nc1` [Compound 129], the concentration for half-maximal inhibition (IC50) was 52 nM under setting [3] and 10 to 100 nM under setting [1]. The corresponding values for `Cc1c(Nc2cccc3c2CCN(S(C)(=O)=O)C3)cccc1-c1ccc(C#N)cc1` [Compound 90] are 490 nM and 100 to 1000 nM.

Take `O=C1CCC(N2CCc3c(cccc3Nc3ccc(Cl)c(-c4ncc(-c5ccccc5)[nH]4)c3)C2)CC1` [Compound 33]: the IC50 reads like this: under setting [3], 0.7 nM; under setting [1], 0.001 to 1 nM. `COc1ccc(-c2cc(Nc3cccc4c3CCN([C@H]3CCS(=O)(=O)C3)C4)ccc2C)nn1` [Compound 322]: the concentration for half-maximal inhibition (IC50) under setting [1] lay in the range of 1 to 10 nM. As to `OC[C@@H](O)CN1CCc2c(cccc2Nc2ccc(Cl)c(-c3ncc(-c4ccccc4)[nH]3)c2)C1` [Compound 93], under setting [1], the IC50 is 1 to 10 nM.

With `CC(C)(CO)C(=O)N1CCc2c(cccc2Nc2ccc(Cl)c(-c3ncc(-c4ccccc4)[nH]3)c2)C1` [Compound 14], the IC50 under setting [1] fell in the range of 0.001 to 1 nM. Same read-out and setting: the result for `Cc1ccc(Nc2cccc3c2CCN(S(C)(=O)=O)C3)cc1-c1ccc(C#N)cc1` [Compound 102] reads 1 to 10 nM; that for `Cc1ccc(Nc2cccc3c2CCN(CC(F)(F)CO)C3)cc1-c1ccc(C#N)cc1` [Compound 112], 10 to 100 nM; that for `Cc1ccc(Nc2cccc3c2CCN(CC(F)(F)CO)C3)cc1-c1nc2ccccc2[nH]1` [Compound 85], 0.001 to 1 nM. Still for that read-out and setting: the result for `O=C(O)C1(C(=O)N2CCc3c(cccc3Nc3ccc(Cl)c(-c4ncc(-c5ccccc5)[nH]4)c3)C2)CC1` [Compound 68] reads 0.001 to 1 nM.

For `Cc1ccc(Nc2cccc3c2CCN(S(C)(=O)=O)C3)cc1C(=O)Nc1ccc(F)cc1` [Compound 185], the IC50 runs as follows: under setting [3], 0.4 nM; under setting [1], 0.001 to 1 nM. Take `Cc1ccc(Nc2cccc3c2CCN(C2CCS(=O)(=O)CC2)C3)cc1-c1ncccc1F` [Compound 269]: the IC50 under setting [1] was 0.001 to 1 nM. As to `COc1ccc(-c2cc(Nc3cccc4c3CCN(S(C)(=O)=O)C4)ccc2C)nc1` [Compound 174], the IC50 under setting [1] lay within 0.001 to 1 nM. Take `Cc1ccc(-c2cc(Nc3cccc4c3CCN(CC(C)(C)O)C4)ccc2C)nc1` [Compound 201]: the half-maximal inhibitory concentration (IC50) under setting [1] was 0.001 to 1 nM.

As for `CC(=O)N1CCc2c(cccc2Nc2ccc(Cl)c(-c3ncc(-c4ccccc4)[nH]3)c2)C1` [Compound 56], the IC50 under setting [1] is 0.001 to 1 nM. In the case of `Cc1cnc(-c2cc(Nc3cccc4c3CCN(S(C)(=O)=O)C4)ccc2C)c(F)c1` [Compound 228], the IC50 under setting [1] fell in the range of 0.001 to 1 nM. For the compound `Cc1ccc(Nc2cccc3c2CCN(C2CS(=O)(=O)C2)C3)cc1-c1cc2ccccc2cn1` [Compound 316], the IC50 under setting [1] is 0.001 to 1 nM.

For `Cc1ccc(Nc2cccc3c2CCN([C@@H]2CCS(=O)(=O)C2)C3)cc1-c1ncccc1F` [Compound 341], the IC50 under setting [2] is 0.001 to 1 nM. For the compound `Cc1ccc(Nc2cccc3c2CCN(CC(C)(C)O)C3)cc1-c1ccc(F)cn1` [Compound 181], the IC50 under setting [1] is 1 to 10 nM.

Consider `Cc1ccc(Nc2cccc3c2CCN(S(C)(=O)=O)C3)cc1-c1ccc(F)cc1` [Compound 122], for which the IC50 under setting [1] fell in the range of 100 to 1000 nM.

Take `Cc1ccc(Nc2nccc3c2CCN(C2CS(=O)(=O)C2)C3)cc1-c1cc2ccccc2cn1` [Compound 332]: the IC50 under setting [1] is 10 to 100 nM. As to `Cc1ccc(Nc2cccc3c2CCN(CC2(C)CC2)C3=O)cc1-c1nc2ccccc2[nH]1` [Compound 127], the IC50 under setting [1] lay within 10 to 100 nM. The same measure, in the same setting: the result for `CCN1CCC(N2CCc3c(Nc4ccc(Cl)c(-c5ncc(-c6ccccc6)[nH]5)c4)cccc3C2=O)CC1` [Compound 32] reads 1 to 10 nM; that for `O=C(O)CN1CCc2c(cccc2Nc2ccc(Cl)c(-c3nc(-c4ccccc4)c[nH]3)c2)C1` [Compound 53], 10 to 100 nM; that for `CCS(=O)(=O)N1CCc2c(ncnc2Nc2ccc(C)c(-c3ccc(C)cn3)c2)C1` [Compound 293], 0.001 to 1 nM.

`[O-][S+]1CCC(N2CCc3c(cccc3Nc3ccc(Cl)c(-c4ncc(-c5ccccc5)[nH]4)c3)C2)CC1` (stereo not shown) [Compound 12]: under setting [1], the IC50 was in the range of 0.001 to 1 nM. As for `CC1(C)CC(N2CCc3c(cccc3Nc3ccc(Cl)c(-c4ncc(-c5ccccc5)[nH]4)c3)C2)CC(C)(C)N1` [Compound 21], the IC50 is, setting by setting: under setting [3], 0.86 nM; under setting [1], 0.001 to 1 nM. Consider `CS(=O)(=O)N1CCc2c(cccc2Nc2ccc(F)c(-c3ccc(C#N)cc3)c2)C1` [Compound 131], for which, under setting [1], the IC50 was in the range of 10 to 100 nM. On the same count and under the same terms, the value for `Cc1ccc(Nc2cccc3c2CCN(C[C@H](O)CO)C3=O)cc1-c1nc2ccccc2[nH]1` [Compound 81] was 10 to 100 nM. Same read-out and setting: the value for `Cc1ccc(Nc2cccc3c2CCN(S(C)(=O)=O)C3)cc1-c1ncc(F)cn1` [Compound 220] was 1 to 10 nM; that for `Clc1ccc(Nc2cccc3c2CCN(C2CC2)C3)cc1-c1ncc(-c2ccccc2)[nH]1` [Compound 82] was 0.001 to 1 nM. Regarding `O=C1c2cccc(Nc3ccc(Cl)c(-c4ncc(-c5ccccc5)[nH]4)c3)c2CCN1C[C@H](O)CO` [Compound 35], the IC50 is 2.6 nM under setting [3] and 1 to 10 nM under setting [1]. In the case of `CS(=O)(=O)N1CCc2c(cccc2Nc2ccc(OC(F)(F)F)c(-c3ccc(C#N)cc3)c2)C1` [Compound 150], the half-inhibitory concentration (IC50) under setting [1] was in the range of 1000 to 10000 nM. On to `Cc1ccc(Nc2cccc3c2CCN(S(C)(=O)=O)C3)cc1-c1cc2ccccc2n1C` [Compound 152], for which, under setting [1], the IC50 is 10 to 100 nM.

As for `Cc1ccc(Nc2cccc3c2CCN(C2CCS(=O)(=O)C2)C3)cc1-c1ccc(F)cn1` (stereo not shown) [Compound 250], under setting [1], the IC50 is 0.001 to 1 nM. `Cc1ccc(-c2cc(Nc3ncnc4c3CCN(C3CS(=O)(=O)C3)C4)ccc2C)nc1` [Compound 288]: the IC50 under setting [1] was in the range of 10 to 100 nM. Take `Cc1ncc(Nc2cccc3c2CCN(S(C)(=O)=O)C3)cc1C(=O)Nc1ccccc1` [Compound 225]: under setting [1], the IC50 lay within 1 to 10 nM. Same read-out and setting: the result for `CS(=O)(=O)N1CCc2c(cccc2Nc2ccc(C(=O)O)c(-c3ccc(C#N)cc3)c2)C1` [Compound 172] reads greater than 10000 nM; that for `CCS(=O)(=O)N1CCc2c(cccc2Nc2ccc(C)c(-c3ccc(OC)nn3)n2)C1` [Compound 318], 1 to 10 nM. As for `Cc1ccc(-c2cc(Nc3cccc4c3CCN(CC(C)(C)F)C4)ccc2C)nc1` [Compound 200], the IC50 under setting [1] lay within 0.001 to 1 nM.

With `Cc1ccc(Nc2cccc3c2CCN(S(C)(=O)=O)C3)cc1-c1ncc(F)cc1F` [Compound 272], the IC50 under setting [1] was 1 to 10 nM. On the same count and under the same terms, the value for `Cc1ccc(-c2cc(Nc3cccc4c3CCN(C3CCS(=O)(=O)CC3)C4)ccc2C)nc1` [Compound 235] was 0.001 to 1 nM; that for `CS(=O)(=O)N1CCc2c(ccnc2Nc2ccc(Cl)c(-c3ncc(-c4ccccc4)[nH]3)c2)C1` [Compound 133] was 0.001 to 1 nM. For `Cc1ccc(Nc2nccc3c2CCN(S(C)(=O)=O)C3)cc1C(=O)Nc1ccccc1` [Compound 247], the IC50 under setting [1] lay within 10 to 100 nM. Turning to `NC(=O)N1CCc2c(cccc2Nc2ccc(Cl)c(-c3ncc(-c4ccccc4)[nH]3)c2)C1` [Compound 43], the IC50 was 4.5 nM under setting [3] and 1 to 10 nM under setting [1]. For the compound `Cc1ccc(Nc2cccc3c2CCN(S(C)(=O)=O)C3)cc1-c1ccc(F)cn1` [Compound 164], under setting [1], the IC50 was 0.001 to 1 nM. Same read-out and setting: the result for `CC(C)N1CCC(N2CCc3c(cccc3Nc3ccc(Cl)c(-c4ncc(-c5ccccc5)[nH]4)c3)C2)CC1` [Compound 36] reads 0.001 to 1 nM; that for `CCOc1ccc(-c2cc(Nc3cccc4c3CCN([C@H]3CCS(=O)(=O)C3)C4)ccc2C)nn1` [Compound 340], 1 to 10 nM; that for `Cc1ccc(Nc2cccc3c2CCN(S(C)(=O)=O)C3)cc1-c1ccc(Cn2cccn2)cc1` [Compound 118], 100 to 1000 nM. In the case of `CCOc1cnc(-c2cc(Nc3cccc4c3CCN(C3CS(=O)(=O)C3)C4)ccc2C)cn1` [Compound 313], the IC50 under setting [1] fell in the range of 1 to 10 nM. In the case of `Cc1ccc(Nc2ncnc3c2CCN(CCS(C)(=O)=O)C3)cc1-c1cc2ccccc2cn1` [Compound 305], under setting [1], the IC50 was 10 to 100 nM.

With `Cc1ccc(-c2nc(Nc3cccc4c3CCN(C3CS(=O)(=O)C3)C4)ccc2C)nc1` [Compound 285], the IC50 under setting [1] lay in the range of 10 to 100 nM.
